Reference: ChEMBL document CHEMBL4732255, “Evaluation of the antiproliferative activity of 106 marine microbial metabolites against human lung cancer cells and potential antiproliferative mechanism of purpuride G” (Bioorg Med Chem Lett, 2021)
Active and inactive are the calls of the source. No cut-off for these calls is given here.

Key:
[1] = tested on: NCI-H157; test: Cell cycle arrest in human NCI-H157 cells assessed as accumulation at G0/G1 phase at 5 uM measured after 48 hrs by propidium iodide staining based flow cytometry (reference value: 56.53 to 56.73%); assay type: functional
[2] = tested on: NCI-H157; test: Inhibition of glycolysis in human NCI-H157 cells assessed as reduction in extracellular glucose consumption at 5 uM incubated for 24 hrs; assay type: functional, cell-based
[3] = tested on: PC-9; test: Inhibition of glycolysis in human PC-9 cells assessed as downregulation of PKM2 protein expression at 2 to 5 uM incubated for 24 hrs by western blot analysis; assay type: functional, cell-based; conditions: dose 2-5 µM
[4] = tested on: A549; test: Antiproliferative activity against human A549 cells assessed as reduction in cell viability measured after 72 hrs by sulforhodamine B assay; assay type: functional, cell-based; conditions: A549, 72 h
[5] = tested on: PC-9; test: Induction of apoptosis in human PC-9 cells assessed as downregulation of Bcl-2 protein expression at 2 to 5 uM incubated for 24 hrs by western blot analysis; assay type: functional, cell-based; conditions: dose 2-5 µM
[6] = tested on: PC-9; test: Inhibition of glycolysis in human PC-9 cells assessed as reduction in lactate release at 5 uM incubated for 24 hrs; assay type: functional, cell-based
[7] = tested on: NCI-H157; test: Cell cycle arrest in human NCI-H157 cells assessed as accumulation at S phase at 5 uM measured after 48 hrs by propidium iodide staining based flow cytometry (reference value: 26.33 to 26.84%); assay type: functional
[8] = tested on: NCI-H1299; test: Antiproliferative activity against human NCI-H1299 cells assessed as reduction in cell viability incubated for 72 hrs by sulforhodamine B assay; assay type: functional, cell-based; conditions: NCI-H1299, 72 h
[9] = tested on: BEAS-2B; test: Cytotoxicity against human BEAS-2B cells assessed as reduction in cell viability incubated for 72 hrs by sulforhodamine B assay; assay type: cell-based
[10] = tested on: NCI-H157; test: Antiproliferative activity against human NCI-H157 cells assessed as reduction in cell viability measured after 72 hrs by sulforhodamine B assay; assay type: functional, cell-based; conditions: NCI-H157, 72 h
[11] = tested on: PC-9; test: Induction of apoptosis in human PC-9 cells assessed as late apoptotic cells at 5 uM measured after 48 hrs by Annexin V-FITC/propidium iodide staining based flow cytometry (reference value: 5.5 to 6.9%); assay type: functional
[12] = tested on: NCI-H1703; test: Antiproliferative activity against human NCI-H1703 cells assessed as reduction in cell viability incubated for 72 hrs by sulforhodamine B assay; assay type: functional, cell-based; conditions: NCI-H1703, 72 h
[13] = tested on: PC-9; test: Induction of apoptosis in human PC-9 cells assessed as early apoptotic cells at 5 uM measured after 48 hrs by Annexin V-FITC/propidium iodide staining based flow cytometry (reference value: 2.55 to 2.8%); assay type: functional
[14] = tested on: NCI-H157; test: Induction of apoptosis in human NCI-H157 cells assessed as downregulation of Bcl-2 protein expression at 2 to 5 uM incubated for 24 hrs by western blot analysis; assay type: functional, cell-based; conditions: dose 2-5 µM
[15] = tested on: PC-9; test: Induction of apoptosis in human PC-9 cells assessed as upregulation of Bax protein expression at 2 to 5 uM incubated for 24 hrs by western blot analysis; assay type: functional, cell-based; conditions: dose 2-5 µM
[16] = tested on: U-251; test: Antiproliferative activity against human U-251 cells assessed as reduction in cell viability incubated for 72 hrs by sulforhodamine B assay; assay type: functional, cell-based; conditions: U-251, 72 h
[17] = tested on: PC-9; test: Cell cycle arrest in human PC-9 cells assessed as accumulation at S phase at 5 uM measured after 48 hrs by propidium iodide staining based flow cytometry (reference value: 52.95 to 53.28%); assay type: functional
[18] = tested on: PC-9; test: Inhibition of glycolysis in human PC-9 cells assessed as reduction in extracellular glucose consumption at 5 uM incubated for 24 hrs; assay type: functional, cell-based
[19] = tested on: PC-9; test: Induction of apoptosis in human PC-9 cells assessed as viable cells at 5 uM measured after 48 hrs by Annexin V-FITC/propidium iodide staining based flow cytometry (reference value: 90.9%); assay type: functional; conditions: read-out: Activity
[20] = tested on: PC-9; test: Inhibition of glycolysis in human PC-9 cells assessed as downregulation of HK2 protein expression at 2 to 5 uM incubated for 24 hrs by western blot analysis; assay type: functional, cell-based; conditions: dose 2-5 µM
[21] = tested on: NCI-H157; test: Inhibition of glycolysis in human NCI-H157 cells assessed as downregulation of HK2 protein expression at 2 to 5 uM incubated for 24 hrs by western blot analysis; assay type: functional, cell-based; conditions: dose 2-5 µM
[22] = tested on: NCI-H157; test: Induction of apoptosis in human NCI-H157 cells assessed as upregulation of Bax protein expression at 2 to 5 uM incubated for 24 hrs by western blot analysis; assay type: functional, cell-based; conditions: dose 2-5 µM
[23] = tested on: NCI-H157; test: Induction of apoptosis in human NCI-H157 cells assessed as viable cells at 5 uM measured after 48 hrs by Annexin V-FITC/propidium iodide staining based flow cytometry (reference value: 94.3%); assay type: functional; conditions: read-out: Activity
[24] = tested on: PC-9; test: Antiproliferative activity against human PC-9 cells assessed as reduction in cell viability incubated for 72 hrs by sulforhodamine B assay; assay type: functional, cell-based; conditions: PC-9, 72 h
[25] = tested on: NCI-H157; test: Induction of apoptosis in human NCI-H157 cells assessed as necrotic cells at 5 uM measured after 48 hrs by Annexin V-FITC/propidium iodide staining based flow cytometry (reference value: 2.5%); assay type: functional
[26] = tested on: NCI-H157; test: Antiproliferative activity against human NCI-H157 cells assessed as cell viability at 50 uM measured after 72 hrs by sulforhodamine B assay; assay type: functional; conditions: read-out: Activity
[27] = tested on: PC-9; test: Induction of apoptosis in human PC-9 cells assessed as necrotic cells at 5 uM measured after 48 hrs by Annexin V-FITC/propidium iodide staining based flow cytometry (reference value: 0.8%); assay type: functional
[28] = tested on: NCI-H157; test: Inhibition of glycolysis in human NCI-H157 cells assessed as reduction in lactate release at 5 uM incubated for 24 hrs; assay type: functional, cell-based
[29] = tested on: NCI-H157; test: Inhibition of glycolysis in human NCI-H157 cells assessed as downregulation of PKM2 protein expression at 2 to 5 uM incubated for 24 hrs by western blot analysis; assay type: functional, cell-based; conditions: dose 2-5 µM
[30] = tested on: PC-9; test: Cell cycle arrest in human PC-9 cells assessed as accumulation at G0/G1 phase at 5 uM measured after 48 hrs by propidium iodide staining based flow cytometry (reference value: 30.67 to 31.96%); assay type: functional
[31] = tested on: NCI-H157; test: Induction of apoptosis in human NCI-H157 cells assessed as induction of PARP cleavage at 2 to 5 uM incubated for 24 hrs by western blot analysis; assay type: functional, cell-based; conditions: dose 2-5 µM
[32] = tested on: U-87 MG; test: Antiproliferative activity against human U-87MG cells assessed as reduction in cell viability incubated for 72 hrs by sulforhodamine B assay; assay type: functional, cell-based, U-87MG ATCC
[33] = tested on: NCI-H157; test: Induction of apoptosis in human NCI-H157 cells assessed as early apoptotic cells at 5 uM measured after 48 hrs by Annexin V-FITC/propidium iodide staining based flow cytometry (reference value: 1 to 1.1%); assay type: functional
[34] = tested on: NCI-H460; test: Antiproliferative activity against human NCI-H460 cells assessed as reduction in cell viability incubated for 72 hrs by sulforhodamine B assay; assay type: functional, cell-based; conditions: NCI-H460, 72 h
[35] = tested on: NCI-H157; test: Cell cycle arrest in human NCI-H157 cells assessed as accumulation at G2/M phase at 5 uM measured after 48 hrs by propidium iodide staining based flow cytometry (reference value: 16.62 to 16.94%); assay type: functional
[36] = tested on: PC-9; test: Cell cycle arrest in human PC-9 cells assessed as accumulation at G2/M phase at 5 uM measured after 48 hrs by propidium iodide staining based flow cytometry (reference value: 15.09 to 16.04%); assay type: functional
[37] = tested on: NCI-H157; test: Induction of apoptosis in human NCI-H157 cells assessed as late apoptotic cells at 5 uM measured after 48 hrs by Annexin V-FITC/propidium iodide staining based flow cytometry (reference value: 1.95 to 2.1%); assay type: functional
[38] = tested on: PC-9; test: Induction of apoptosis in human PC-9 cells assessed as induction of PARP cleavage at 2 to 5 uM incubated for 24 hrs by western blot analysis; assay type: functional, cell-based; conditions: dose 2-5 µM
[39] = tested on: A549; test: Antiproliferative activity against human A549 cells assessed as cell viability at 50 uM measured after 72 hrs by sulforhodamine B assay; assay type: functional; conditions: read-out: Activity

Structure (SMILES): CC1(C)CC[C@H](O)[C@@]2(C)[C@H]1CC=C1C(=O)OC[C@@]12O
- Activity [1]: 47.83%
- inhibition [2]: Active
- inhibition [3]: Active
- IC50 [4]: 3.3 µM
- Activity [5]: Active
- inhibition [6]: Active
- Activity [7]: 36.68%
- IC50 [8]: 2.7 µM
- IC50 [9]: 6.3 µM
- IC50 [10]: 2.9 µM
- Activity [11]: 32.1%
- IC50 [12]: 3.6 µM
- Activity [13]: 5.7%
- Activity [14]: Active
- Activity [15]: Active
- IC50 [16]: 4.5 µM
- Activity [17]: 22.97%
- inhibition [18]: Active
- viability at 5 µM [19]: 38.1%
- inhibition [20]: Active
- inhibition [21]: Active
- Activity [22]: Active
- viability at 5 µM [23]: 70.7%
- IC50 [24]: 2.1 µM
- Activity [25]: 4.9%
- viability at 50 µM [26]: < 50%
- Activity [27]: 23.4%
- inhibition [28]: Active
- inhibition [29]: Active
- Activity [30]: 55.77%
- Activity [31]: Active
- IC50 [32]: 10.4 µM
- Activity [33]: 6.1%
- IC50 [34]: 2.3 µM
- Activity [35]: 15.21%
- Activity [36]: 20.29%
- Activity [37]: 18.15%
- Activity [38]: Active
- viability at 50 µM [39]: < 50%
